≈ marks a conversion by molar mass, not a printed value. Read-outs that look alike come from different tables or passages of the source.
Columns and labels:
[1] = tested on: HL-60 human promyelocytic leukemia; experiment: In vitro inhibition rate to tumor cells (MTT), HL-60; type: cell-based; details: for inhibition at 50 µg/mL: Homo sapiens; for inhibition rate, Results (%) HL-60: 50 μg/ml
[2] = tested on: MCF-7 human mammary adenocarcinoma; experiment: In vitro anti-tumor IC50 (MTT), MCF-7; type: cell-based; details: Homo sapiens, MCF7; Table 4; read-out: IC50 (ug/ml) against tumor cell lines, MCF
Experimental: (1) Single cell suspension was seeded into 96-well plates (the cells was diluted in the PRMI-1640 minimum medium to 3×10^4 cells/ml, […] diluted cells/well). […] The experiments were performed in quadruplicate.
(2) The medium was removed. Solutions of the anti-tumor agents (50 compounds) were prepared in a freshly prepared medium at serial concentrations. […] of the solution was added into each well. Incubation was continued for 48 hours.
(3) 20 ug of 2 mg/ml MTT was added into each well, and incubated for 4 hours.
(4) The medium was removed from the well. The microplates were swiftly turned down to throw-off the medium. […] of DMSO was added into each well, and vortexed at room temperature for 10 minutes.
(5) OD value (λ=570 nm) was measured with an Enzyme-Linked Detector.
(6) The graph of cell vitality was plotted, and IC50 was calculated.

[3] = target: T1, HIV-1 reverse transcriptase (Human immunodeficiency virus type 1 group M subtype B, UniProt P04585); experiment: Screening for the in vitro activity against the HIV-1 reverse transcriptase; type: biochemical
T1 construct: purchased
Experimental: Principle of the test: The template to which the HIV-1 reverse transcriptase interacts was covered onto the enzyme-lined template. In the optimal reaction conditions and system, HIV-1 RT will put the substrate comprising Biotin-dUTP onto the reaction template. The activity of the enzyme was measured as the amount of the integrating Biotin-dUTP in the reaction by using streptavidin-labeled horseradish peroxidase. Adding the sample to the reaction system can identify inhibitor of the enzyme.
1. HIV-1 RT: commercially available.
2. Treatment of the samples: Before use, the sample was dissolved in DMSO at a suitable concentration, then serially diluted (5×) with double distilled water, five serial dilutions per sample.
4. Methods: The diluted sample was added into the reaction buffer containing Biotin-dUTP and the genetic engineered target enzyme, and incubated in the optimal reaction conditions. A streptavidin-labeled horseradish peroxidase was added to visual the system, and OD450 was measured.

[4] = tested on: mouse grafted sarcoma S-180; experiment: Activity against mouse grafted sarcoma S-180; type: in vivo, Kunming mice; details: for Average weight (g)-after administration / Tumor weight / Inhibition rate (%) / Average weight(g)-after administration: 6 doses; for Tumor weight: X ± SD, n = 10
Experimental: (1) Experimental animals: Kunming mice weighting 18-22 g;
(2) 100 mg/ml solutions of the 3 compounds were prepared, respectively, in water for injection (1% surface surfactant was added into the solution of Compound 6). 5-FU and camptothecine, 30 mg/kg and 1 mg/kg, respectively, were used as positive controls;
3. Route of Administration: Intravenous Injection.
(§1) The experiments were performed according to “Guideline for New Drugs (Western medicines) in Pre-clinical Stages” issued by Bureau of Drug Policy & Administration of the People's Republic of China, and the relevant methods in “Methodology of Pharmaceutical Experiments”, Xu Shuyun et al. ed. 120 male Kunming mice weighting […] were allowed to grow 3 days. No abnormality was observed. The mice were routinely inoculated in oxter with mouse sarcoma S-180, and weighted 4 hrs. after inoculation. The mice were randomly divided into 12 groups, 10 mice/group. Group 1 was given 0.3 ml of physiological saline as negative control; Group 2 was given 5-FU as positive control, 0.6 mg/mouse; Group 3 was given hydroxycamptothecine as positive control, 0.02 mg/mouse. Groups 4, 5 and 6 were injected with 10% Compound 6, 0.4 ml/mouse, 0.2 ml/mouse, and 0.1 ml/mouse, respectively. Groups 7, 8 and 9 were injected with 10% Compound 8, 0.4 ml/mouse, 0.2 ml/mouse, and 0.1 ml/mouse, respectively. Groups 10, 11, and 12 were injected with 10% Compound 20, 0.4 ml/mouse, 0.2 ml/mouse, and 0.1 ml/mouse, respectively. The tested compounds were administered on the next day after inoculation, once a day on alternate days, 6 doses totally administered. On the next day after the end dose, the mice were weighed and sacrificed. After the tumor was excised, body weight and tumor weight were recorded. The tumor inhibition rate was calculated based on the following formula: [(average tumor weight of the control groups−average tumor weight of the experimental groups)/average tumor weight of the control groups]×100%. The data was processed statistically. The above experiments were repeated three times.

[5] = tested on: mouse grafted liver cancer H22; experiment: Activity against mouse grafted liver cancer H22; type: in vivo, Kunming mice; details: for Tumor weight: X ± SD, n = 10
Experimental: as §1
The experiments were identical with the experiments for activity against mouse grafted sarcoma S-180, except that the cell line inoculated was liver cancer H22. The experiments were repeated three times.

[6] = HL-60, 50 μg/ml, Table 1, read-out: inhibition rate, Results (%) HL-60
[7] = HL-60, 50 μg/ml, Table 2 (repeated screening), read-out: inhibition rate, Results (%) HL-60
[8] = HL-60, 50 μg/ml, Table 3 (repeated screening), read-out: inhibition rate, Results (%) HL-60
[9] = IC50, initial concentration 200 μg/ml
[10] = S-180, first experiment, 10 mg/kg i.v.
[11] = S-180, first experiment, 20 mg/kg i.v.
[12] = S-180, first experiment, 40 mg/kg i.v.
[13] = S-180, second experiment, 10 mg/kg i.v.
[14] = S-180, second experiment, 20 mg/kg i.v.
[15] = S-180, second experiment, 40 mg/kg i.v.
[16] = three different concentrations (40, 20, 10 mg/kg), i.v.
[17] = H22, first experiment, 10 mg/kg i.v., 6 doses
[18] = H22, first experiment, 20 mg/kg i.v., 6 doses
[19] = H22, first experiment, 40 mg/kg i.v., 6 doses
[20] = H22, second experiment, 10 mg/kg
[21] = H22, second experiment, 20 mg/kg
[22] = H22, second experiment, 40 mg/kg
[23] = H22, third experiment, 10 mg/kg
[24] = H22, third experiment, 20 mg/kg
[25] = H22, third experiment, 40 mg/kg

C=C1CC2(OS(=O)(=O)O)OC3(CC2C(C)C)C(C)CCC13 (centres unmarked) [Compound 20, Curcumol sulfonate]
inhibition at 50 µg/mL [1, 6]: 91.3%
inhibition at 50 µg/mL [1, 7]: 92.4%
inhibition at 50 µg/mL [1, 8]: 91.7%
IC50 [2]: 4.98 µg/mL
IC50 [3, 9]: > 632 µM

CC(C)C1CC23OC1(O)CC(=CN1CCNCC1)C2CCC3C (centres unmarked) [Compound 7, Curcumol piperazine]
inhibition at 50 µg/mL [1, 6]: 90.6%
inhibition at 50 µg/mL [1, 7]: 91%
inhibition at 50 µg/mL [1, 8]: 90.2%
IC50 [2]: 3.2 µg/mL (≈ 9.99 µM)
IC50 [3, 9]: > 624 µM

CC(C)C1CC23OC1(O)CC(=CBr)C2CCC3C (centres unmarked) [Compound 17, Curcumol monobromide]
inhibition at 50 µg/mL [1, 6]: 92.3%
inhibition at 50 µg/mL [1, 7]: 90.1%
IC50 [2]: 4.63 µg/mL
IC50 [3, 9]: > 634 µM

C=C1CC2(OS(=O)(=O)[O-])OC3(CC2C(C)C)C(C)CCC13.[Na+] (centres unmarked) [Compound 21, Curcumol sodium sulfonate]
inhibition rate, Results (%) HL-60 ([1]; Table 1): 93.12%
inhibition rate, Results (%) HL-60 ([1]; Table 2 (repeated screening)): 90.89%
inhibition rate, Results (%) HL-60 ([1]; Table 3 (repeated screening)): 89.79%
IC50 [2]: 4.99 µg/mL
Average weight (g)-after administration [4, 10]: 22.6 g
Tumor weight [4, 10]: 2.6 ± 0.23 g
Average weight (g)-after administration [4, 11]: 22.5 g
Inhibition rate (%) [4, 11]: 4%
Tumor weight [4, 11]: 2.4 ± 0.43 g
Average weight (g)-after administration [4, 12]: 23.1 g
Inhibition rate (%) [4, 12]: 8%
Tumor weight [4, 12]: 2.3 ± 0.31 g
Average weight(g)-after administration [4, 13]: 22.6 g
Inhibition rate (%) [4, 13]: 3.8%
Tumor weight [4, 13]: 2.5 ± 0.42 g
Average weight(g)-after administration [4, 14]: 22.2 g
Inhibition rate (%) [4, 14]: 3.8%
Tumor weight [4, 14]: 2.5 ± 0.38 g
Average weight(g)-after administration [4, 15]: 23.1 g
Inhibition rate (%) [4, 15]: 7.6%
Tumor weight [4, 15]: 2.4 ± 0.36 g
inhibitory effect against mouse sarcoma S-180 (in words) [4, 16]: little inhibitory effect
Average weight(g)-after administration [5, 17]: 22.1 g
Tumor weight [5, 17]: 3.00 ± 0.29 g
Average weight(g)-after administration [5, 18]: 22.0 g
Tumor weight [5, 18]: 3.03 ± 0.41 g
Average weight(g)-after administration [5, 19]: 22.1 g
Inhibition rate (%) [5, 19]: 4.0%
Tumor weight [5, 19]: 2.9 ± 0.31 g
Average weight(g)-after administration [5, 20]: 22.1 g
Tumor weight [5, 20]: 3.03 ± 0.29 g
Average weight(g)-after administration [5, 21]: 22.0 g
Tumor weight [5, 21]: 3.02 ± 0.41 g
Average weight(g)-after administration [5, 22]: 22.1 g
Inhibition rate (%) [5, 22]: 1.0%
Tumor weight [5, 22]: 3.0 ± 0.31 g
Average weight (g)-after administration [5, 23]: 22.1 g
Tumor weight [5, 23]: 3.02 ± 0.29 g
Average weight (g)-after administration [5, 24]: 21.0 g
Tumor weight [5, 24]: 3.01 ± 0.41 g
Average weight (g)-after administration [5, 25]: 20.1 g
Inhibition rate (%) [5, 25]: 1.0%
Tumor weight [5, 25]: 3.0 ± 0.31 g
inhibitory effect against mouse grafted liver cancer H22 (in words) [5, 16]: little inhibitory effect
IC50 [3, 9]: > 591 µM

CC(C)C1CC23OC1(O)C/C(=C\Nc1ccc(O)cc1)C2CCC3C (centres unmarked) [Compound 5, Curcumol p-hydroxy aniline]
inhibition rate, Results (%) HL-60 ([1]; Table 3 (repeated screening)): 95.14%
inhibition at 50 µg/mL [1, 7]: 90.9%
inhibition at 50 µg/mL ([1]; HL-60, read-out: inhibition rate, Results (%) HL-60, 50 μg/ml, Table 1): 91.3%
IC50 [2]: 1 µg/mL (≈ 2.91 µM)
IC50 ([3]; initial concentration 200 μg/ml, read-out: IC50): > 582 µM

C=C1CC2(OC(=O)C(C)C)OC3(CC2C(C)C)C(C)CCC13 (centres unmarked) [Compound 3, Curcumol isobutyrate]
inhibition at 50 µg/mL [1, 6]: 3.21%
inhibition at 50 µg/mL [1, 7]: 4.89%
inhibition rate of HIV-1 reverse transcriptase ([3]; 120 ug/ml): 60%
IC50 ([3]; IC50, initial concentration 1/150 of the stock solution): < 392 µM
